From patent US20240123078A1, “COMPOUNDS AND METHODS FOR MODULATING IMMUNE-RELATED PROTEINS” (Vividion Therapeutics, Inc., priority 2019, published 2024)

Tests used:
Experiment in all cases: Cysteine reactivity ABPP
Assay type in all cases: binding
[1] = target: T1, PTPN11 Tyrosine-protein phosphatase non-receptor type 11 C259 (Q06124) (Homo sapiens, UniProt Q06124)
T1 construct: endogenous in cells; host or cells: primary human T cells
T1 sequence (Q06124 1-593): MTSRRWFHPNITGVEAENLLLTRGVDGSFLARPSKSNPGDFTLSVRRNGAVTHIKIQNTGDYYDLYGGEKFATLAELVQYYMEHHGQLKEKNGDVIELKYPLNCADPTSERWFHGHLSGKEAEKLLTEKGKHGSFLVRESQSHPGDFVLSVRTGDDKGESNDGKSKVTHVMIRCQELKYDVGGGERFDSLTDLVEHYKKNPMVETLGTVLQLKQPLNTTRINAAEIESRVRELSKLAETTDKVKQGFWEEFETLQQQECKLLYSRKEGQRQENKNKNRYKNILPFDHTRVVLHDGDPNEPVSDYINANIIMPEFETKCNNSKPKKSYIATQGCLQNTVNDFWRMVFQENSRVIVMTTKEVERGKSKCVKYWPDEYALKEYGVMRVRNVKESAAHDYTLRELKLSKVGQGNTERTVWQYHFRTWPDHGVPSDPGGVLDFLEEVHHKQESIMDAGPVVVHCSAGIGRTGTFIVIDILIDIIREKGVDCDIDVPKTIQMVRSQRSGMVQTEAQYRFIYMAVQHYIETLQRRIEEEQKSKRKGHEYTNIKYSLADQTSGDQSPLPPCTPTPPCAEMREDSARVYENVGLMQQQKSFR
Description: (§1) Activated or expanded primary human T cells were re-suspended in RPMI (1×10^6 cells/mL) containing 10% fetal bovine serum (FBS), penicillin (100 U/mL), streptomycin ([…]), and L-glutamine (2 mM). The cells were treated with DMSO or compounds for 3 h, pelleted (524 g, 5 min), washed with PBS, and lysed by sonication (2×8 pulses). Soluble and particulate proteomic fractions were separated by ultracentrifugation (100,000 g, 45 min), and protein concentration was normalized to 1.7 mg/mL using a standard DC protein assay (Bio-Rad). The resulting proteomes were analyzed by competitive isotopic Tandem Orthogonal Proteolysis Activity-Based Protein Profiling (isoTOP-ABPP).
(§2) The heavy/light isoTOP-ABPP ratios (R values) for each unique peptide (DMSO/compound treated) were quantified with in-house CIMAGE software (Weerapana et al., 2010) using default parameters (3 MS1 acquisitions per peak and signal to noise threshold set to 2.5). Site-specific engagement of cysteine residues was assessed by blockade of IA-alkyne probe labeling. […] Ratios for unique peptide sequences were calculated for each experiment; overlapping peptides with the same modified cysteine (e.g., different charge states, elution times or tryptic termini) were grouped together and the median ratio was reported as the final ratio (R). Additionally, ratios for peptide sequences containing multiple cysteines were grouped together. When aggregating data across experimental replicates, the mean of each experimental median R was reported. The peptide ratios reported by CIMAGE were further filtered to ensure the removal or correction of low-quality ratios in each individual dataset. The quality filters applied were the following: removal of half-tryptic peptides, removal of peptides with more than one tryptic miscleaved, removal of peptides with R=20 and only a single MS2 event triggered during the elution of the parent ion, removal of non-unique peptides. Further filtering was then performed as described below for each experiment type.
(§3) Samples (500 μL, 1.7 mg/mL) were treated with iodoacetamide desthiobiotin (IA-DTB, 5 μL of 10 mM stock in DMSO, final concentration: 100 μM) for 1 h at ambient temperature. Ice-cold MeOH (500 μL) and CHCl3 (200 μL) were then added, the mixture was vortexed and centrifuged (10,000 g, 10 min, 4° C.) to afford a protein disc at the interface of CHCl3 and aqueous layers. Both layers were aspirated without perturbing the disk, which was re-suspended in cold methanol (500 μL) and CHCl3 (200 μL) by sonication. The proteins were pelleted (10,000 g, 10 min, 4° C.), and the resulting pellets were re-suspended in a buffer (90 μL) containing 9M urea, 10 mM DTT and 50 mM triethylammonium bicarbonate ( 1/20 dilution of 1.0 M stock solution, pH 8.5) by thorough pipetting up and down. The resulting mixture was heated at 65° C. for 20 min. Sample was cooled to room temp, iodoacetamide (10 μL, 500 mM solution in H2O) was added, and the samples were incubated at 37° C. for 30 min with shaking.
(§4) At individual TMT experiment level, the following filters were applied to remove low-quality peptides: removal of non-unique peptides; removal of half-tryptic peptides; removal of peptides with more than one internal miscleaved site; removal of peptides with low (<10,000) sum of reporter ion intensities for control channels, and peptides with high variation between the replicate control channels (coefficient of variance >0.5). R values (compound-treated vs. DMSO-treated) for each peptide entry were calculated using the reporter ion intensities of DMSO and compound treated TMT channels for each treatment group with a maximum ratio cap of 20. […]

[2] = target: T2, PELP1 Proline-, glutamic acid- and leucine-rich protein 1 C71 (Q8IZL8) (Homo sapiens, UniProt Q8IZL8)
T2 construct: endogenous in cells; host or cells: primary human T cells
Description: as §1, §2, §3, §4

[3] = target: T3, PDIA3 Protein disulfide-isomerase A3 C57, C60 (P30101) (Homo sapiens, UniProt P30101)
T3 construct: endogenous in cells; host or cells: primary human T cells
T3 sequence (P30101 25-505): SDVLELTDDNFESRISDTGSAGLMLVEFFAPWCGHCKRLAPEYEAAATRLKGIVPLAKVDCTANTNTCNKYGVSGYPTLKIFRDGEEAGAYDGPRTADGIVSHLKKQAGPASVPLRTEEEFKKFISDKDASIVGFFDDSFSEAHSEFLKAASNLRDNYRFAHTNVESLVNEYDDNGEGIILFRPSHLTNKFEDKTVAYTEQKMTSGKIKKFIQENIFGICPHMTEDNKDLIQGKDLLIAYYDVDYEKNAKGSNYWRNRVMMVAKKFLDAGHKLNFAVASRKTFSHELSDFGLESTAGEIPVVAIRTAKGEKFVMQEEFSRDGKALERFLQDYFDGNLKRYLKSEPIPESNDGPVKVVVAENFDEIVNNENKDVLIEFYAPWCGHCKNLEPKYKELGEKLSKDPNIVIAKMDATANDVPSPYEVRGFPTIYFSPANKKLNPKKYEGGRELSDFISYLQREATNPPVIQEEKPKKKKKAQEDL
Description: as §1, §2, §3, §4

[4] = target: T4, PFKFB3 6-phosphofructo-2-kinase/fructose-2,6-bisphosphatase 3 C155 (Q16875) (Homo sapiens, UniProt Q16875)
T4 construct: endogenous in cells; host or cells: primary human T cells
Description: as §1, §2, §3, §4

[5] = target: T5, JAK1 Tyrosine-protein kinase JAK1 C810, C817 (P23458) (Homo sapiens, UniProt P23458)
T5 construct: endogenous in cells; host or cells: primary human T cells
Description: as §1, §2, §3, §4

[6] = target: T6, STAT3 Signal transducer and activator of transcription 3 C259 (P40763) (Homo sapiens, UniProt P40763)
T6 construct: endogenous in cells; host or cells: primary human T cells
Description: as §1, §2, §3, §4

T6 sequence (P40763 whole entry, one chain of several): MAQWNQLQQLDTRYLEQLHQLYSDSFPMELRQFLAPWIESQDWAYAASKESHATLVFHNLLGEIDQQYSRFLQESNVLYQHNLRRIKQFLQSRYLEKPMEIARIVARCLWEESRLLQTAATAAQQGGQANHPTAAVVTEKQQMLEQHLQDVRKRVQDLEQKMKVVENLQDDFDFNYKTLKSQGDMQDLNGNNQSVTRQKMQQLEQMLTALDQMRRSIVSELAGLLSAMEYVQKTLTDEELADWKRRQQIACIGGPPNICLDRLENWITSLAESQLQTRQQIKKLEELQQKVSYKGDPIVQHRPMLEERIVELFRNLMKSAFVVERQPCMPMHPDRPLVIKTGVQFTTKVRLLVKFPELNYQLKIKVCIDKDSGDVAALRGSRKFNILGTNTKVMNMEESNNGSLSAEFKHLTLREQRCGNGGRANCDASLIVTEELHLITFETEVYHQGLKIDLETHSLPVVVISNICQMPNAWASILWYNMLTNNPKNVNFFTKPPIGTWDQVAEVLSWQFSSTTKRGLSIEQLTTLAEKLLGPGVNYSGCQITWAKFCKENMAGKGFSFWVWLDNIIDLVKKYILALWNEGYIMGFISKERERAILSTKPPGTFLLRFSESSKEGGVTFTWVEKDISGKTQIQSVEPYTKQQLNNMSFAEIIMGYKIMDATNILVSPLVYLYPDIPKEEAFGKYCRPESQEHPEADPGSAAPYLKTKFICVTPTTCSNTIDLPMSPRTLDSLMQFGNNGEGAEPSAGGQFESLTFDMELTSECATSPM
T5 sequence (P23458 whole entry): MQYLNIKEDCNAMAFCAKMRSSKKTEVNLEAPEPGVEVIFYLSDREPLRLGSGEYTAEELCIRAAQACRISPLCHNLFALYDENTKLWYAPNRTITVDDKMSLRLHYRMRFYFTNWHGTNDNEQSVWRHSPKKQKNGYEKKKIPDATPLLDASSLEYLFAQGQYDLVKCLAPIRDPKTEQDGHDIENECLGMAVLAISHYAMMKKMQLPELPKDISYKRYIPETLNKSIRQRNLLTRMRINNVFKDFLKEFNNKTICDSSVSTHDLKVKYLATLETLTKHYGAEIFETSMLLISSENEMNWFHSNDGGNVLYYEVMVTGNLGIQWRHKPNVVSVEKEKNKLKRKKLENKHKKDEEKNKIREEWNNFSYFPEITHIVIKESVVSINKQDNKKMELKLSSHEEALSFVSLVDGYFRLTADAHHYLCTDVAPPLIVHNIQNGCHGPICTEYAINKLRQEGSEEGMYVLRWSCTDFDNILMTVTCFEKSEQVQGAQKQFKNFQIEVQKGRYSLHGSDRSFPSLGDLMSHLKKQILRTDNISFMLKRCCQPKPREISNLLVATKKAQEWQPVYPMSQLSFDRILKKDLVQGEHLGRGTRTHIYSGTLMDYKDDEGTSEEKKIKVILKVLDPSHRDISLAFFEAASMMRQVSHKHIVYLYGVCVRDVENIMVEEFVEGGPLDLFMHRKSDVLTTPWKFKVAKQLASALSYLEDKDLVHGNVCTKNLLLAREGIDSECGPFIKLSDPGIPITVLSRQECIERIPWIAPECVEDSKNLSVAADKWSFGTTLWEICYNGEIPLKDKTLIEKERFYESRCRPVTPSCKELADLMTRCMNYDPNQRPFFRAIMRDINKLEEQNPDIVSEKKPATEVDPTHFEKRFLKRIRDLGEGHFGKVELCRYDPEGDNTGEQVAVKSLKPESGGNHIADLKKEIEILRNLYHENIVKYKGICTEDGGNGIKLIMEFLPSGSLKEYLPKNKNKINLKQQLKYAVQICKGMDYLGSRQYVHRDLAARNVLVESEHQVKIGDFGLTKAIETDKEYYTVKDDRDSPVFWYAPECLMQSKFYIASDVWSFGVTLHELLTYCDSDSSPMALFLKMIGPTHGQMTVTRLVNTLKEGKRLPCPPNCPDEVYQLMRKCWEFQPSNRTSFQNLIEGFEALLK
T4 sequence (Q16875 whole entry, one chain of several): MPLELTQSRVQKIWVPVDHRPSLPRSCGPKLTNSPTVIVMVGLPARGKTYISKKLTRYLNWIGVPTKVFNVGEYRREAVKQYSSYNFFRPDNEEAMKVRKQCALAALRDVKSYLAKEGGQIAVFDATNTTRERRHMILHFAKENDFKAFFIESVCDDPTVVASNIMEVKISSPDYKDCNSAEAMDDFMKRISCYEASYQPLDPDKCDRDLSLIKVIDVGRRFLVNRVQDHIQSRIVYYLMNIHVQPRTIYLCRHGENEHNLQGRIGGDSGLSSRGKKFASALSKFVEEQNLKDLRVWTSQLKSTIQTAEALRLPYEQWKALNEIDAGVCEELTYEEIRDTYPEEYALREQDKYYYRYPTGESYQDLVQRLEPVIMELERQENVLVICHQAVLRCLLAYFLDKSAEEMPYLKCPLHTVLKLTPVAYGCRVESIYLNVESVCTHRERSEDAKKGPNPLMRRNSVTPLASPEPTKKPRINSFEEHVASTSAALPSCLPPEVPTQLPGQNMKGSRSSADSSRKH
T2 sequence (Q8IZL8 whole entry, one chain of several): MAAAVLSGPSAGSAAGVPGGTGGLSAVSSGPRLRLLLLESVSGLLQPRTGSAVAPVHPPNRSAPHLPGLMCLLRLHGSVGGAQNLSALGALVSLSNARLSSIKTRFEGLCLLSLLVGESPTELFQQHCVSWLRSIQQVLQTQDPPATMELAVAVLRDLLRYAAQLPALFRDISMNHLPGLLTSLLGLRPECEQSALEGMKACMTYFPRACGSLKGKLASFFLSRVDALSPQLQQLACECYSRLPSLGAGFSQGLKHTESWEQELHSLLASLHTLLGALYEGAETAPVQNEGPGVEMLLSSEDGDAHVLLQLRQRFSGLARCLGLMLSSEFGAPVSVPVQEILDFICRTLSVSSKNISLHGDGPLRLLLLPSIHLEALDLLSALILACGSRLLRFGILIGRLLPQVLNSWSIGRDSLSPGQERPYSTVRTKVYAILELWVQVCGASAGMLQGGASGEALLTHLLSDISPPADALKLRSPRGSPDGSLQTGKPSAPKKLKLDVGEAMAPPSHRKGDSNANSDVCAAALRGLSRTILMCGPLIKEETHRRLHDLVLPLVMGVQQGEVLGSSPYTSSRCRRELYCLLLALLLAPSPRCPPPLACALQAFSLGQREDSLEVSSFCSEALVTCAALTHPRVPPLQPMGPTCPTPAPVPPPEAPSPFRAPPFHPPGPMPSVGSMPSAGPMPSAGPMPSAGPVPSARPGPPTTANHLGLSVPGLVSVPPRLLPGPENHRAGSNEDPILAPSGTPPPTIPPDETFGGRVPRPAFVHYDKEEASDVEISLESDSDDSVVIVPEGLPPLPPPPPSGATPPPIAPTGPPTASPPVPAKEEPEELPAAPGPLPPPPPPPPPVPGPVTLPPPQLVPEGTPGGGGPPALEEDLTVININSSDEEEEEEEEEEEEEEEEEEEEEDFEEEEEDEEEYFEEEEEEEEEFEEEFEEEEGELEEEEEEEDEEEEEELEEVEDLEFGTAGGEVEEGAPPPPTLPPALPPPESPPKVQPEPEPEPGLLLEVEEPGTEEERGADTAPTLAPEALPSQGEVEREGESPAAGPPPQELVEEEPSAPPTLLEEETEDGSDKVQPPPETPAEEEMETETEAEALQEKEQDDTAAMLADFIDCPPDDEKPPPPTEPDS

Row | Cysteine reactivity proteomic data ([1]; 100 μM) | Cysteine reactivity proteomic data ([1]; 500 μM) | Cysteine reactivity proteomic data [2]; 100 | Cysteine reactivity proteomic data [3]; 100 | Cysteine reactivity proteomic data ([4]; 100 μM) | Cysteine reactivity proteomic data ([4]; 500 μM) | Cysteine reactivity proteomic data ([5]; 100 μM) | Cysteine reactivity proteomic data ([5]; 500 μM) | Cysteine reactivity proteomic data ([6]; 100 μM) | Cysteine reactivity proteomic data ([6]; 500 μM) | Cysteine reactivity proteomic data ([2]; 500 μM) | Cysteine reactivity proteomic data ([3]; 500 μM) | Structure (SMILES)
1 | 16.62 | 84.5074 | 71.33 | 61.24 | 26.69 | 90.3507 | 18.7286 | 90.3525 | 42.3797 | 73.3713 |  |  | O=C(CCl)N1CCN(S(=O)(=O)c2ccc(-c3ccncc3)cc2)CC1 [Compound B9]
2 |  | 28.7525 |  |  |  | −24.3435 |  | 39.2015 |  | 13.6326 | 1.71 | 7.07 | C=CC(=O)N(Cc1cccc(Cl)c1Cl)c1ccc(Oc2ccccc2)c(C(F)(F)F)c1 [Compound K4]
